For one assay, the target named is T1, Human NK1 Receptor (Homo sapiens, UniProt P25103).
T1 construct: endogenous in cells; host or cells: Human lymphoma IM9 cells (whole cells)
T1 sequence (P25103 whole entry): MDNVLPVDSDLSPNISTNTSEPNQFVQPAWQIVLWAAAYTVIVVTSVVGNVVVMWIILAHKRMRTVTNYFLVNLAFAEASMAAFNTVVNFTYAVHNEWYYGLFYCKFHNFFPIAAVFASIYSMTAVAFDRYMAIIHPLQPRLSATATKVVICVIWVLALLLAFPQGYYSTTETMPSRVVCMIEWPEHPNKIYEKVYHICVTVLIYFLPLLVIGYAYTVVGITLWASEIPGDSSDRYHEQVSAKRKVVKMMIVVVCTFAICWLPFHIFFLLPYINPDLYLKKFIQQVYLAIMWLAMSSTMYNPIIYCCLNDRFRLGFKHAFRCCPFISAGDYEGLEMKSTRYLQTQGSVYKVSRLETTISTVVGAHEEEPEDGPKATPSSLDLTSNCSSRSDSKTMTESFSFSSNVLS
In words: In Vitro Human NK1 Receptor Binding Assay ([125I]Bolton-Hunter substance P displacement, IM9 cells). Conditions: Table 4; [125I]Bolton-Hunter substance P displacement, human IM9 cells; read-out: IC50 (nM) hNK1. The method, boiled down: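 Radioligand displacement on whole IM9 human lymphoma cells (2.5×10^6 cells/mL) using [125I]Bolton-Hunter substance P (0.05-0.1 nM), 50 min at 21° C in Tris pH 7.4/MnCl2 buffer with protease inhibitors. Non-specific binding defined by […] [Sar9, Met(O2)11] substance P. Filtration, gamma counting, iterative curve fitting.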
Broadly, the IC50 is the concentration at which inhibition is half-maximal. Turning to `CC(NC(=O)C(C)(Cc1c[nH]c2ccccc12)NCc1ccc2ccccc2c1)c1ccccc1` (stereo not drawn) [compound 309, 3-(1H-Indol-3-yl)-2-methyl-2-[(naphthalen-2-ylmethyl)-amino]-N-(1-phenyl-ethyl)-propionamide], the IC50 was 169 nM.

Turning to `CC(NC(=O)C(C)(Cc1c[nH]c2ccccc12)NCc1ccccn1)c1ccccc1` (stereo not drawn) [compound 310, 3-(1H-Indol-3-yl)2-methyl-N-(1-phenyl-ethyl)-2-[(pyridin-2-ylmethyl)-amino]-propionamide], the IC50 is 3320 nM.

Consider `CC(NC(=O)C(C)(Cc1c[nH]c2ccccc12)NCc1ccc2ccccc2n1)c1ccccc1` (stereo not drawn) [compound 311, 3-(1H-Indol-3-yl)-2-methyl-N-(1-phenyl-ethyl)-2-[(quinolin-2-ylmethyl)-amino]-propionamide], for which the IC50 was 88 nM.

With `CC(NC(=O)C(C)(Cc1c[nH]c2ccccc12)NCc1ccoc1)c1ccccc1` (stereo not drawn) [compound 312, 2-[(Furan-3-ylmethyl)-amino]-3-(1H-indol-3-yl)-2-methyl-N-(1-phenyl-ethyl)-propionamide], the IC50 was 1820 nM.

`CC(NC(=O)C(C)(Cc1c[nH]c2ccccc12)NCc1ccco1)c1ccccc1` (stereo not drawn) [compound 314, 2-[(Furan-2-ylmethyl)-amino]-3-(1H-indol-3-yl)-2-methyl-N-(1-phenyl-ethyl)-propionamide]: the IC50 was 141 nM.

Take `CC(NC(=O)C(C)(Cc1c[nH]c2ccccc12)NCc1cnc2ccccc2c1)c1ccccc1` (stereo not drawn) [compound 315, 3-(1H-Indol-3-yl)-2-methylN-(1-phenyl-ethyl)-2-[(quinolin-3-ylmethyl)-amino]-propionamide]: the IC50 was found to be 1070 nM.

For `CC(NC(=O)C(C)(Cc1c[nH]c2ccccc12)NCc1nc2ccccc2[nH]1)c1ccccc1` (stereo not drawn) [compound 316, 2-[(1H-Benzoimidazol-2-ylmethyl)-amino]-3-(1H-indol-3-yl)-2-methyl-N-(1-phenyl-ethyl)-propionamide], the IC50 was over 10000 nM.

For the compound `COc1ccc2oc(CNC(C)(Cc3c[nH]c4ccccc34)C(=O)NC(C)c3ccccc3)cc2c1` (stereo not drawn) [compound 317, 3-(1H-Indol-3-yl)-2-[(5-methoxy-benzofuran-2-ylmethyl)-amino]-2-methyl-N-(1-phenyl-ethyl)-propionamide], the IC50 is over 10000 nM.

As to `CC(NC(=O)C(C)(Cc1c[nH]c2ccccc12)NCc1cncc2ccccc12)c1ccccc1` (stereo not drawn) [compound 318, 3-(1H-Indol-3-yl)-2-[(isoquinolin-4-ylmethyl)-amino]-2-methyl-N-(1-phenyl-ethyl)-propionamide], the IC50 turned out to be 1600 nM.

For the compound `COc1ccc2cc(CNC(C)(Cc3c[nH]c4ccccc34)C(=O)NC(C)c3ccccc3)oc2c1` (stereo not drawn) [compound 319, 3-(1H-Indol-3-yl)-2-[(6-methoxy-benzofuran-2-ylmethyl)-amino]-2-methyl-N-(1-phenyl-ethyl)-propionamide], the IC50 was found to be 2100 nM.

`CC(NC(=O)C(C)(Cc1c[nH]c2ccccc12)NCc1cccnc1)c1ccccc1` (stereo not drawn) [compound 320, 3-(1H-Indol-3-yl)-2-methyl-N-(1-phenyl-ethyl)-2-[(pyridin-3-ylmethyl)-amino]-propionamide]: the IC50 was determined as 5970 nM.

As to `CC(NC(=O)C(C)(Cc1c[nH]c2ccccc12)NCCNC(=O)CN1C(=O)c2ccccc2C1=O)c1ccccc1` (stereo not drawn) [compound 321, 2-{2-[2-(1,3-Dioxo-1,3-dihydro-isoindol-2-yl)-acetylamino]-ethylamino}-3-(1H-indol-3-yl)-2-methyl-N-(1-phenyl-ethyl)-propionamide], the IC50 was 3040 nM.

On to `CC(NC(=O)C(C)(Cc1c[nH]c2ccccc12)NCC=Cc1ccco1)c1ccccc1` (stereo not drawn) [compound 322, 2-(3-Furan-2-yl-allylamino)-3-(1H-indol-3-yl)-2-methyl-N-(1-phenyl-ethyl)-propionamide], for which the IC50 was 91 nM.

The assay is the same for the next values; noted with them: human NK1 receptor, IM9 cells, [125I]Bolton-Hunter substance P; read-out: IC50 (nM) hNK1.
Turning to `CC(Cc1c[nH]c2ccccc12)(NCc1cc2ccccc2o1)C(=O)NCCc1cccs1` (stereo not drawn) [compound 172, 2-[(Benzofuran-2-ylmethyl)-amino]-3-(1H-indol-3-yl)-2-methyl-N-(2-thiophen-2-yl-ethyl)-propionamide], the IC50 is 153 nM.

With `CC(Cc1c[nH]c2ccccc12)(NCc1cc2ccccc2o1)C(=O)NCC(=O)N1CCOCC1` (stereo not drawn) [compound 173, 2-[(Benzofuran-2-ylmethyl)-amino]-3-(1H-indol-3-yl)-2-methyl-N-(2-morpholin-4-yl-2-oxo-ethyl)-propionamide], the IC50 is over 10000 nM.

Turning to `CC(Cc1c[nH]c2ccccc12)(NCc1cc2ccccc2o1)C(=O)NCc1ccc2c(c1)OCO2` (stereo not drawn) [compound 174, N-Benzo[1,3]dioxol-5-ylmethyl-2-[(benzofuran-2-ylmethyl)-amino]-3-(1H-indol-3-yl)-2-methyl-propionamide], the IC50 amounted to 94 nM.

Take `CC(Cc1c[nH]c2ccccc12)(NCc1cc2ccccc2o1)C(=O)NCc1ccc(Cl)c(Cl)c1` (stereo not drawn) [compound 175, 2-[(Benzofuran-2-ylmethyl)-amino]-N-(3,4-dichloro-benzyl)-3-(1H-indol-3-yl)-2-methyl-propionamide]: the half-maximal inhibitory concentration (IC50) came to 96 nM.

With `COC(=O)C(Cc1c[nH]cn1)NC(=O)C(C)(Cc1c[nH]c2ccccc12)NCc1cc2ccccc2o1` (stereo not drawn) [compound 176, 2-[2-[(Benzofuran-2-ylmethyl)-amino]-3-(1H-indol-3-yl)-2-methyl-propionylamino]-3-(1H-imidazol-4-yl)-propionic acid methyl ester], the IC50 is 1760 nM.

Turning to `CC(Cc1c[nH]c2ccccc12)(NCc1cc2ccccc2o1)C(=O)NCc1ccc(Cl)cc1F` (stereo not drawn) [compound 177, 2-[(Benzofuran-2-ylmethyl)-amino]-N-(4-chloro-2-fluoro-benzyl)-3-(1H-indol-3-yl)-2-methyl-propionamide], the IC50 amounted to 444 nM.

With `CC(Cc1c[nH]c2ccccc12)(NCc1cc2ccccc2o1)C(=O)NCc1cccc(N)c1` (stereo not drawn) [compound 178, N-(3-Amino-benzyl)-2-[(benzofuran-2-ylmethyl)-amino]-3-(1H-indol-3-yl)-2-methyl-propionamide], the IC50 is 1370 nM.

As for `CC(Cc1c[nH]c2ccccc12)(NCc1cc2ccccc2o1)C(=O)NCc1cnc(N)nc1N` (stereo not drawn) [compound 179, 2-[(Benzofuran-2-ylmethyl)-amino]-N-(2,4-diamino-pyrimidin-5-ylmethyl)-3-(1H-indol-3-yl)-2-methyl-propionamide], the IC50 came out at 5920 nM.

As to `CC(Cc1c[nH]c2ccccc12)(NCc1cc2ccccc2o1)C(=O)NCc1ccccc1F` (stereo not drawn) [compound 180, 2-[(Benzofuran-2-ylmethyl)-amino]-N-(2-fluoro-benzyl)-3-(1H-indol-3-yl)-2-methyl-propionamide], the half-inhibitory concentration (IC50) came out at 266 nM.

Take `CC(Cc1c[nH]c2ccccc12)(NCc1cc2ccccc2o1)C(=O)NCc1ccc(F)cc1F` (stereo not drawn) [compound 181, 2-[(Benzofuran-2-ylmethyl)-amino]-N-(2,4-difluoro-benzyl)-3-(1H-indol-3-yl)-2-methyl-propionamide]: the IC50 stood at 269 nM.

With `CC(Cc1c[nH]c2ccccc12)(NCc1cc2ccccc2o1)C(=O)NCc1ccc(O)c(O)c1` (stereo not drawn) [compound 182, 2-[(Benzofuran-2-ylmethyl)-amino]-N-(3,4-dihydroxy-benzyl)-3-(1H-indol-3-yl)-2-methyl-propionamide], the IC50 is over 10000 nM.

Take `CC(Cc1c[nH]c2ccccc12)(NCc1cc2ccccc2o1)C(=O)NC(CO)Cc1c[nH]cn1` (stereo not drawn) [compound 183, 2-[(Benzofuran-2-ylmethyl)-amino]-N-[1-hydroxymethyl-2-(1H-imidazol-4-yl)-ethyl]-3-(1H-indol-3-yl)-2-methyl-propionamide]: the IC50 is over 10000 nM.

In the case of `CC(Cc1c[nH]c2ccccc12)(NCc1cc2ccccc2o1)C(=O)NCC1CCCCC1O` (stereo not drawn) [compound 184, 2-[(Benzofuran-2-ylmethyl)-amino]-N-(2-hydroxy-cyclohexylmethyl)-3-(1H-indol-3-yl)-2-methyl-propionamide], the concentration for half-maximal inhibition (IC50) is over 10000 nM.

As for `CC(Cc1c[nH]c2ccccc12)(NCc1cc2ccccc2o1)C(=O)NCCCN1CCOCC1` (stereo not drawn) [compound 185, 2-[(Benzofuran-2-ylmethyl)-amino]-3-(1H-indol-3-yl)-2-methyl-N-(3-morpholin-4-yl-propyl)-propionamide], the IC50 was over 10000 nM.

Turning to `CC(Cc1c[nH]c2ccccc12)(NCc1cc2ccccc2o1)C(=O)NCc1ccccc1O` (stereo not drawn) [compound 186, 2-[(Benzofuran-2-ylmethyl)-amino]-N-(2-hydroxy-benzyl)-3-(1H-indol-3-yl)-2-methyl-propionamide], the IC50 came out at 84 nM.

On to `COc1ccc(CNC(=O)C(C)(Cc2c[nH]c3ccccc23)NCc2cc3ccccc3o2)cc1F` (stereo not drawn) [compound 187, 2-[(Benzofuran-2-ylmethyl)-amino]-N-(3-fluoro-4-methoxy-benzyl)-3-(1H-indol-3-yl)-2-methyl-propionamide], for which the IC50 was determined as 131 nM.

Consider `COc1ccc(CNC(=O)C(C)(Cc2c[nH]c3ccccc23)NCc2cc3ccccc3o2)c(N)c1` (stereo not drawn) [compound 188, N-(2-Amino-4-methoxy-benzyl)-2-[(benzofuran-2-ylmethyl)-amino]-3-(1H-indol-3-yl)-2-methyl-propionamide], for which the IC50 turned out to be 2280 nM.

In the case of `CC(Cc1c[nH]c2ccccc12)(NCc1cc2ccccc2o1)C(=O)NCc1ccccc1Cl` (stereo not drawn) [compound 189, 2-((Benzofuran-2-ylmethyl)-amino]-N-(2-chloro-benzyl)-3-(1H-indol-3-yl)-2-methyl-propionamide], the IC50 was found to be 1130 nM.

For the compound `CC(Cc1c[nH]c2ccccc12)(NCc1cc2ccccc2o1)C(=O)NCc1c(F)cccc1F` (stereo not drawn) [compound 190, 2-[(Benzofuran-2-ylmethyl)-amino]-N-(2,6-difluoro-benzyl)-3-(1H-indol-3-yl)-2-methyl-propionamide], the IC50 was found to be 3540 nM.

With `CC(Cc1c[nH]c2ccccc12)(NCc1cc2ccccc2o1)C(=O)NCc1ccc(F)c(Cl)c1` (stereo not drawn) [compound 191, 2-[(Benzofuran-2-ylmethyl)-amino]-N-(3-chloro-4-fluoro-benzyl)-3-(1H-indol-3-yl)-2-methyl-propionamide], the concentration for half-maximal inhibition (IC50) worked out at 55 nM.

The values above are taken from patent US6472418B1, “Non-peptide NK1 receptors antagonists” (Warner-Lambert Company, priority 1998, dated 2002).
